Assay results reported in paper PMC10344891, “Continuous enzyme activity assay for high-throughput classification of histone deacetylase 8 inhibitors” (Exploration of Targeted Anti-tumor Therapy, 2023).
Structures can show the parent of a compound that is named as a salt. Where two headings read alike, the source gives them in different places.

Experiments:
trypsin = experiment: Trypsin inhibition counter-assay (Bz-Arg-PNA); assay type: biochemical; conditions: 0.1 mg/mL trypsin, 400 µmol/L Bz-Arg-PNA, any applied concentration
Description: where EA stands for the enzyme activity at a given ligand concentration x, Emax and E0 are the enzyme activities without ligand and under complete inhibition, respectively. IC50 is the ligand concentration at which half of the enzyme activity is inhibited and h is a measure of the steepness of the dose-response curve. […] All solutions were pre-incubated at 30°C. The two-step IC50 determination has been described previously. In short: KDAC8 was incubated with the respective ligands, and the enzymatic reaction was started by the addition of 20 µmol/L Boc-Lys(TFA)-AMC substrate (Bachem). […]. In this endpoint assay, the fluorescence signal was correlated to […] and normalized with a positive control without ligand. Data analysis was performed as described above. For IC50 determination due to trypsin inhibition, the basic IC50 procedure was identical. In the assay 0.1 mg/mL trypsin and 400 µmol/L Bz-Arg-PNA (Bachem) were used. The change in substrate absorbance was recorded in a microplate reader (Spark®, Tecan) at 405 nm. In this endpoint assay, the absorbance signal was correlated to […] and normalized with a positive control without ligand. Data analysis was performed as described above.

human KDAC8 [1] = target: T1, human KDAC8 (Homo sapiens, UniProt Q9BY41); experiment: Progress curves of continuous KDAC8 assay: relative KDAC8 activity after 5,000 s (stabilization curves); conditions: ratio of late-stage to early-stage slopes, normalized to free KDAC8
T1 sequence (Q9BY41 1-377): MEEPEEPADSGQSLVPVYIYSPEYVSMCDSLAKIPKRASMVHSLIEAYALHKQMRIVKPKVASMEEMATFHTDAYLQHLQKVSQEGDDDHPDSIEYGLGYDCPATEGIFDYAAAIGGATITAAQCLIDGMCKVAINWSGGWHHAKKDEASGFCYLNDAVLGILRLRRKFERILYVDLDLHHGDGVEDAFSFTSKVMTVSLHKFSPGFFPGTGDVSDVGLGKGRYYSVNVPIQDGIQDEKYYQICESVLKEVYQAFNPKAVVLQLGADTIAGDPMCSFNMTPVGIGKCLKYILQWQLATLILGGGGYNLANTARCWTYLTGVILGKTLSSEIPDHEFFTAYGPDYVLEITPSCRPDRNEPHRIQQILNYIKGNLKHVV
Description: The measurements were carried out in a black 96-well half-area microtiter plate (Greiner) at 30°C in assay buffer (see above). The respective ligand was diluted in Master Mix (see above) and binding kinetics were initiated by the addition of 10 nmol/L KDAC8. […] All solutions were pre-incubated at 30°C. Slopes were calculated for the early-stage (1,000 s to 2,000 s) and the late-stage (5,000 s to 6,000 s) using linear regression. The relative KDAC8 activity in the presence of different inhibitor concentrations was calculated as the ratio of the late-stage and early-stage slopes and normalized to free KDAC8 enzyme.

human KDAC8 [2] = target: T1, human KDAC8; experiment: Continuous (one-step) KDAC8 enzyme activity assay, IC50 determination; assay type: biochemical; parameters: full-length human KDAC8 was produced in E. coli BL21 (DE3); His6-SUMO (N, cleaved yes); made in house; host or cells: E. coli BL21 (DE3), pET14b vector; conditions: for IC50: 10 nmol/L KDAC8, 60 min pre-incubation at 30°C, 20 µmol/L Boc-Lys(TFA)-AMC, 0.1 mg/mL trypsin, mean ± SD, n = 3; for Inhibition mode: classification of mode of action on KDAC8; for Time-dependence of IC50 values: pre-incubation times 5 min to 60 min, 100 nmol/L KDAC8
human KDAC8 [3] = target: T1, human KDAC8; experiment: Two-step endpoint KDAC8 activity assay, IC50 determination; assay type: biochemical; parameters: full-length human KDAC8 was produced in E. coli BL21 (DE3); His6-SUMO (N, cleaved yes); made in house; host or cells: E. coli BL21 (DE3), pET14b vector; conditions: 20 µmol/L Boc-Lys(TFA)-AMC, stopped with SATFMK, trypsin development, n = 3
human KDAC8 [4] = target: T1, human KDAC8; experiment: Thermal shift assay (SYPRO orange melting curves); assay type: binding; parameters: full-length human KDAC8 was produced in E. coli BL21 (DE3); His6-SUMO (N, cleaved yes); made in house; host or cells: E. coli BL21 (DE3), pET14b vector; conditions: for ΔTm at 100 µM: read-out: ΔTm (thermal stabilization of KDAC8)
Description: By utilizing a QuantStudio™ 5 real-time quantitative polymerase chain reaction (qPCR) system (Thermo Fisher Scientific), protein melting curves with SYPRO® orange as fluorescence dye were generated. […] A DMSO control without ligand was utilized as a positive control. After mixing the components, the samples were incubated at 30°C for 1 h in the real-time qPCR system to assure binding equilibrium. […] The fluorescence signal was plotted against the temperature. The melting point was calculated as the point of inflection of the first derivative using protein thermal shift software (Thermo Fisher Scientific).

human KDAC8 [5] = target: T1, human KDAC8; experiment: Michaelis-Menten kinetics with the continuous KDAC8 assay; assay type: biochemical; parameters: full-length human KDAC8 was produced in E. coli BL21 (DE3); His6-SUMO (N, cleaved yes); made in house; host or cells: E. coli BL21 (DE3), pET14b vector; conditions: n = 3
Description: The measurements were carried out in a black 96-well microtiter plate (Greiner) at 30°C in assay buffer (see above). A serial two-fold dilution ranging from 50 µmol/L substrate, Boc-Lys(TFA)-AMC (Bachem), to 780 nmol/L, was prepared in an assay buffer containing 0.1 mg/mL trypsin. The enzymatic reaction was initiated by the addition of 10 nmol/L KDAC8. […] The data points were plotted against time and blank corrected. For the determination of Michaelis-Menten parameters, a linear regression analysis of the initial slope (vi) of each curve was performed. Slopes were transformed into rates of AMC product formation using a calibration curve with different AMC concentrations. The obtained enzyme conversion rates were plotted against the respective substrate concentration and fitted to the Michaelis-Menten function using GraphPad Prism software. The turnover number (kcat) was calculated as
where vi is the substrate conversion rate and E is the enzyme concentration. All solutions were pre-incubated at 30°C.

KDAC11 = conditions: cited from earlier work
[6] = 100 µmol/L inhibitor, 12 µmol/L KDAC8, 1 h at 30°C before melting

Row | SMILES | Effect on trypsin activity (trypsin) | Stabilization of KDAC8 activity (relative KDAC8 activity after 5,000 s vs free enzyme) (human KDAC8 [1]) | IC50 (human KDAC8 [2]) [nM] | Inhibition mode (human KDAC8 [2]) | Time-dependence of IC50 values (human KDAC8 [2]) | IC50 (human KDAC8 [3]) [nM] | ΔTm (thermal stabilization of KDAC8) (human KDAC8 [4]; [6]) [°C] | ΔTm at 100 µM (human KDAC8 [4]; [6]) [°C] | ΔTm at 100 µM (human KDAC8 [4]) [°C] | Km (human KDAC8 [5]; assay buffer (low salt), 10 nmol/L KDAC8, 30°C) [µM] | kcat (human KDAC8 [5]; assay buffer) [s⁻¹] | Stabilization of KDAC11 (KDAC11) | Time to establish binding equilibrium with KDAC8 (human KDAC8 [2]; deduced from unchanged IC50 at shortest pre-incubation time)
1 | CCN1C(=O)C=CC1=O [NEM, N-ethylmaleimide] | no effect against trypsin | do not preserve the relative KDAC8 activity | 320 ± 90 | Covalent inactivation | significant changes in IC50-values over time | 780 ± 180 | 4.58 ± 0.26 | 4 to 5 |  |  |  |  | 
2 | CC(/C=C/C(=O)NO)=C\[C@H](C)C(=O)c1ccc(N(C)C)cc1 [TSA, trichostatin A] |  |  |  | Fast reversible binding |  |  |  |  | 11.96 ± 0.06 |  |  |  | 
3 | O=[N+]([O-])c1ccc(CCS(=O)(=O)c2nc(Cl)ns2)cc1 [TJ-19-29, 3-chloro-5-[2-(4-nitrophenyl)ethanesulfonyl]-1,2,4-thiadiazole] | no effect against trypsin | do not preserve the relative KDAC8 activity | 30 ± 9 | Covalent inactivation |  | 120 ± 40 | 4.4 ± 0.3 | 4 to 5 |  |  |  |  | 
4 | Cc1cc(=O)oc2cc(NC(=O)[C@H](CCCCNC(=O)C(F)(F)F)NC(=O)OC(C)(C)C)ccc12 [Boc-Lys(TFA)-AMC, tert-butyl N-[(1S)-1-[(4-methyl-2-oxo-chromen-7-yl)carbamoyl]-5-[(2,2,2-trifluoroacetyl)amino]pentyl]carbamate] |  |  |  |  |  |  |  |  |  | 8.9 ± 1.6 | 0.034 ± 0.002 |  | 
5 | O=C(CCCCCCC(=O)Nc1ccccc1)NO [SAHA, suberoylanilide hydroxamic acid] |  |  |  | Fast reversible binding | no time-dependent change in IC50-values |  |  |  | 8.5 ± 0.06 |  |  | capable of stabilizing KDAC11 | less than 5 min
